One compound from patent US20240279232A1, “USE OF SUBSTITUTED 5-(4-METHYL-6-PHENYL-4H-BENZO[F]IMIDAZO[1,5-A][1,4] DIAZEPIN-3-YL)-1,2,4-O[…] THE TREATMENT OF INFLAMMATORY CONDITIONS” (priority 2021, published 2024) can be followed below.

The target of one assay is T1, σ2 receptor (Homo sapiens, UniProt Q5BJF2).
T1 construct: expressed in transfected cells; host or cells: HEK cells (stably transfected)
Description: σ2 receptor binding (3H-ditolylguanidine, HEK cell lysate). The protocol:
(§1) Psychoactive Drug Screening Program. Detailed protocols for the primary and secondary radioligand binding assays can be found in the National Institute of Mental Health's Psychoactive Drug Screening Program (NIMH PDSP) Assay Protocol Book. Briefly, primary and secondary radioligand binding assays are carried out in a final of volume of 125 μL per well in appropriate binding buffer. The radioactive ligand concentration is close to the Kd. Total binding and nonspecific binding are determined in the absence and presence of 10 μM of appropriate reference compound, respectively. In brief, plates are usually incubated at room temperature and in the dark for 90 min. Reactions are stopped by vacuum filtration onto 0.3% polyethyleneimine (PEI) soaked 96-well filter mats using a 96-well Filtermate harvester, followed by three washes with cold PBS buffer. Scintillation cocktail is then melted onto the microwave-dried filters on a hot plate and radioactivity counted in a Microbeta counter. The data (n=6) were analyzed by nonlinear regression.

A further assay deals with iNOS. The assay can be described thus: iNOS activity in activated microglia after compound treatment. The format is cell-based, mouse. Conditions: 50 μM, treatment for 24 h. The protocol:
The cellular proteins were isolated from mouse microglia treated with vehicle and mouse microglia activated with IFNγ/LPS and treated for 24 hours with vehicle or 50 μM MP-IV-010. The specific iNOS activity was determined with an Abcam INOS Activity Assay kit (n=4).
Next, the possible involvement of INOS in MP-IV-010 (and structurally similar compound GL-IV-03) mediated reduction of NO in activated microglia was investigated. INOS activity was measured in activated microglia after a 24-hour treatment with MP-IV-010. Second, proteins were harvested from microglia activated for 24 hours with LPS/INFγ, followed by a 2-hour treatment with MP-IV-010 before measuring iNOS activity. Finally, mRNA and protein levels were quantified for GL-IV-03 treated activated microglia to examine the transcriptional regulation of iNOS.
iNOS activity assay. Mouse microglia were activated with 50 ng/mL LPS (Invivogen, NC9836) and 150 U/mL IFNγ (R&D Systems, 485MI100), and treated with compounds of interest in 6 well plates for 2 or 24 hours. […] Protein was collected, quantified, and analyzed with the Nitric Oxide Synthase Activity kit (Abcam, ab211083) with minor alterations to the established protocol. […] Absorbance at 540 nm was measured using a TECAN Infinite M1000 plate reader. Significance (n=3) was analyzed by ANOVA.

A further assay addresses 5-HT2A (Homo sapiens, UniProt P28223). The assay can be described thus: PDSP primary binding 5-HT2A. The settings on record: PDSP primary screening. The protocol:
(§2) Because reduction of NO could not be reversed by GABAAR antagonists, the possible binding of MP-IV-010 to other cellular receptors was evaluated in collaboration with the NIMH Psychoactive Drug Screening Program.
as §1

For a further assay, the target named is 5-HT2C (Homo sapiens, UniProt P28335). Description: PDSP primary binding 5-HT2C. Conditions: PDSP primary screening. As for the experimental part:
as §2, §1

For a further assay, the target named is 5-HT3 (Homo sapiens, UniProt P46098). Description: PDSP primary binding 5-HT3. Conditions: PDSP primary screening. As for the experimental part:
as §2, §1

The next assay has as its target Alpha2C (Homo sapiens, UniProt P18825). The assay can be described thus: PDSP primary binding Alpha2C. The settings on record: PDSP primary screening. The protocol:
as §2, §1

The next assay concerns the target M4 (Homo sapiens, UniProt P08173). The assay can be described thus: PDSP primary binding M4. Conditions: PDSP primary screening. As for the experimental part:
as §2, §1

A further assay has as its target Beta3 (Homo sapiens, UniProt P13945). Description: PDSP primary binding Beta3. Conditions: PDSP primary screening. As for the experimental part: as §2, §1

T1 sequence (Q5BJF2 whole entry, species assumed): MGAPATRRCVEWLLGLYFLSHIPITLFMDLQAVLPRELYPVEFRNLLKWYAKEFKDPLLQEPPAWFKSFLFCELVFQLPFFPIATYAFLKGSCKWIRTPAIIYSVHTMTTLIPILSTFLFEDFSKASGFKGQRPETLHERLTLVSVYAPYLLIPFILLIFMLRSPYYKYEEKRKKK
Sequence of Alpha2C (P18825 whole entry): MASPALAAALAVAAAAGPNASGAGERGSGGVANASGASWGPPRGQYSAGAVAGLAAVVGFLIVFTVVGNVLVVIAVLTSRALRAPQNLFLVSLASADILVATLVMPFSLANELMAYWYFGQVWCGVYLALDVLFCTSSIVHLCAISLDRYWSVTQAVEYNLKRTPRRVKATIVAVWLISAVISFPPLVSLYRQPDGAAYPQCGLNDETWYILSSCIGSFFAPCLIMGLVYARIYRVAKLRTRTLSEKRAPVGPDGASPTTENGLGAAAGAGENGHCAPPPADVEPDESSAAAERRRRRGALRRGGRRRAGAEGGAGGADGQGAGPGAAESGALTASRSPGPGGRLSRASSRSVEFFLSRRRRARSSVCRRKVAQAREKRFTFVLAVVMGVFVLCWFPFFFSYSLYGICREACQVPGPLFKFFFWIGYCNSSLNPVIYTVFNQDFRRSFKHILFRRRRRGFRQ
Sequence of Beta3 (P13945 whole entry): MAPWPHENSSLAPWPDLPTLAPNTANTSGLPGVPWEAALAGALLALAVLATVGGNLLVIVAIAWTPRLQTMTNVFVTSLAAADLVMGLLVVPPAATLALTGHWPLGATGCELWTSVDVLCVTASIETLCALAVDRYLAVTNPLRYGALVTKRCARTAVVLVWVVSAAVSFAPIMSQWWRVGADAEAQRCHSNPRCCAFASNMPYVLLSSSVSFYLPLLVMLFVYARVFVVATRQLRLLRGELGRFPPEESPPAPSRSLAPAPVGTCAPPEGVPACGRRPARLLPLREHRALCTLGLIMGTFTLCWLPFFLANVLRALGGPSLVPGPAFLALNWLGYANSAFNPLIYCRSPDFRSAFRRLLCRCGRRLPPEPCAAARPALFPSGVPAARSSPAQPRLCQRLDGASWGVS
Sequence of 5-HT3 (P46098 24-478, species assumed): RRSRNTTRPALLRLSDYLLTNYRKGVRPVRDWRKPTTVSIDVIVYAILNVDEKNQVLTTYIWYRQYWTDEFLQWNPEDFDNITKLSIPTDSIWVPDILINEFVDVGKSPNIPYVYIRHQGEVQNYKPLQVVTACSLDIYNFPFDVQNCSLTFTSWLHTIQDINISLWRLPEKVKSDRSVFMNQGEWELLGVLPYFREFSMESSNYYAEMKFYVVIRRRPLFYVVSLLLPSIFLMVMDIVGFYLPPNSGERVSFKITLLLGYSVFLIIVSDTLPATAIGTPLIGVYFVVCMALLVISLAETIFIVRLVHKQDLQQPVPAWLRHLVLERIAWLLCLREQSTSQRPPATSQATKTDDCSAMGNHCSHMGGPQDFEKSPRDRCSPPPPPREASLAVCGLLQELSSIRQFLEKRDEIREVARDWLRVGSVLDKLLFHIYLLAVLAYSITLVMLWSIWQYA
Sequence of M4 (P08173 whole entry): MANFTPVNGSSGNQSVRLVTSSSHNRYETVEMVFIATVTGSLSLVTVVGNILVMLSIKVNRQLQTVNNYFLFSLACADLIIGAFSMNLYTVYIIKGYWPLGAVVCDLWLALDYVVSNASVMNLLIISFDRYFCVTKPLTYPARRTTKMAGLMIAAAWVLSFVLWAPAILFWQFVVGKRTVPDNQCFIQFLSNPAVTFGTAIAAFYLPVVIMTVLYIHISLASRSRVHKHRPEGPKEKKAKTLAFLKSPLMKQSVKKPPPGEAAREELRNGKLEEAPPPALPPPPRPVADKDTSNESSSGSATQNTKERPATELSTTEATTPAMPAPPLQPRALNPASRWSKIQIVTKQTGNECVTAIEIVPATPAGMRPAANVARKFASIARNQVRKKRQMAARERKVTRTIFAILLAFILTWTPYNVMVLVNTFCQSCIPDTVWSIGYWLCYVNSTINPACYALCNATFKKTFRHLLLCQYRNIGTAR
Sequence of 5-HT2A (P28223 whole entry): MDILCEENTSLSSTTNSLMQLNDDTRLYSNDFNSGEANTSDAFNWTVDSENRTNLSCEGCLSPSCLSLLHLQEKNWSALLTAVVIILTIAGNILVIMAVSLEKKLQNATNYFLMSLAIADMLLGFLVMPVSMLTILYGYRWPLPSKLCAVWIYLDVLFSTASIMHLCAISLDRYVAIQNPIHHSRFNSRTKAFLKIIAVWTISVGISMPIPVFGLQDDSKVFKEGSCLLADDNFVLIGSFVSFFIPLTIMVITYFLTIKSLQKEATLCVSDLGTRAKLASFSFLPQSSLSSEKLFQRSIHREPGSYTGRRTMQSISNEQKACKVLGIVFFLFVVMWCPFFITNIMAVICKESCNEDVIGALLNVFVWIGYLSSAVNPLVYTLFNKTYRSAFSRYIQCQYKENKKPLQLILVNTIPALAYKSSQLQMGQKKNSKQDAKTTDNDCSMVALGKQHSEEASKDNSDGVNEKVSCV
Sequence of 5-HT2C (P28335 33-458, species assumed): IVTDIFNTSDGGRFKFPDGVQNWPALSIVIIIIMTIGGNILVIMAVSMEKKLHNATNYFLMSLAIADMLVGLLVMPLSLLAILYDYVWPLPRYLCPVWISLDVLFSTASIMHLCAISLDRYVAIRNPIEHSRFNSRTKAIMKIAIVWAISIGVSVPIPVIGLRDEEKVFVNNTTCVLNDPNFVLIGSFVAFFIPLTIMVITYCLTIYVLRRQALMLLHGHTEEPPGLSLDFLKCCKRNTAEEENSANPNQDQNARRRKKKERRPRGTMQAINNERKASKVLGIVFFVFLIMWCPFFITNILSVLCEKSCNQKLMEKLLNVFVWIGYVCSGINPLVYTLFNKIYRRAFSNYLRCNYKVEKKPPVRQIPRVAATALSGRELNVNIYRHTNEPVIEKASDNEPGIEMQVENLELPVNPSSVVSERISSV

One may read the IC50 as the point on the concentration scale where inhibition reaches its midpoint. A low value points to higher potency. For the compound `C#Cc1ccc2c(c1)C(c1ccccc1F)=N[C@H](C)c1c(-c3nc(C(C)C)no3)ncn1-2` [MP-IV-010, (R)-5-(8-ethynyl-6-(2-fluorophenyl)-4-methyl-4H-benzo[f]imidazo[1,5-a][1,4]diazepin-3-yl)-3-isopropyl-1,2,4-oxadiazole], on σ2 receptor, the IC50 was 5.2 µM. For the same compound, the “Percent Competition Sigma 2” value on σ2 receptor (PDSP primary screening) was determined as 64%. The “iNOS activity in activated microglia” value in the assay on iNOS was “completely inhibited”. The “Percent Competition 5-HT2A” value at 5-HT2A was −1%. Also, the “Percent Competition 5-HT2C” value on 5-HT2C is −2%. For the same compound, the “Percent Competition 5-HT3” value on 5-HT3 turned out to be 13%. Also, the “Percent Competition Alpha2C” value at Alpha2C came out at 31%. Also, the “Percent Competition M4” value at M4 came out at 8%. For the same compound, the “Percent Competition Beta3” value on Beta3 is recorded as 38%.
